Our source for the IC50 values is patent US9242970B2 (ACTELION PHARMACEUTICALS LTD., priority 2010, dated 2016).

One test deals with human orexin-2 receptor (Homo sapiens (Human), UniProt O43614). Description: In vitro assay: intracellular calcium measurements (FLIPR), antagonistic activity. The conditions noted are these: CHO cells, 3 nM orexin-A, compound incubation 120 min; marked values are geometric means of n = 2-6; read-out: IC50 OX2. It counts as cell-based. Background: A change in cytosolic calcium serves as a functional read-out for many receptors and channels.
Chain of human orexin-2 receptor (O43614 whole entry): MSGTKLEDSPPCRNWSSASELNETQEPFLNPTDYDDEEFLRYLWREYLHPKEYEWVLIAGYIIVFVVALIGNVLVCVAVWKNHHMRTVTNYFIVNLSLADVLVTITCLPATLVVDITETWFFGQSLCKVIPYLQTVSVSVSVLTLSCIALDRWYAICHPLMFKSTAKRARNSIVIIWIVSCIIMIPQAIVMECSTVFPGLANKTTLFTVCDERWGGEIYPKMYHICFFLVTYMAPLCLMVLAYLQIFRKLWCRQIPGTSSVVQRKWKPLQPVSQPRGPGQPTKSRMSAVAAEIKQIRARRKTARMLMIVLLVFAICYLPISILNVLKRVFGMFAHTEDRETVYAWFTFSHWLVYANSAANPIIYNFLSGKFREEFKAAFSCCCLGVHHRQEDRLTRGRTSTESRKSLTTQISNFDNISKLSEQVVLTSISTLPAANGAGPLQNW

The target of a further test is human orexin-1 receptor (Homo sapiens (Human), UniProt O43613). The test is described as above. It counts as cell-based. To be noted: CHO cells, 3 nM orexin-A, compound incubation 120 min; marked values are geometric means of n = 2-6; read-out: IC50 OX1.
Chain of human orexin-1 receptor (O43613 whole entry): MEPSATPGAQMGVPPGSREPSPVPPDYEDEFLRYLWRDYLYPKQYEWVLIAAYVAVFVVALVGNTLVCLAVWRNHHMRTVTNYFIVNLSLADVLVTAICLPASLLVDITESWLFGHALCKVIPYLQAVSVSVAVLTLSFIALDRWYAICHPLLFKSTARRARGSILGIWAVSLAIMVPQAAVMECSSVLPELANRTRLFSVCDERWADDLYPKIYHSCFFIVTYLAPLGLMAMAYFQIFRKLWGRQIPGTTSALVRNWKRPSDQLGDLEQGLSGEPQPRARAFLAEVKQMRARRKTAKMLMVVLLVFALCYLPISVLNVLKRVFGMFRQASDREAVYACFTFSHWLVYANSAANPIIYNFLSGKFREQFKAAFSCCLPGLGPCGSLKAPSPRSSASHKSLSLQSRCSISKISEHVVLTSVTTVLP

pIC50: −log10 of the molar value.

Consider `COc1cccc(OC)c1C1CC(C)C(=O)N1Cc1cc2ccccc2n1C` (stereo not drawn) [Example 388, 5-(2,6-dimethoxyphenyl)-3-methyl-1-((1-methyl-1H-indol-2-yl)methyl)pyrrolidin-2-one], for which the negative-log IC50 (pIC50) – broadly, −log10 of the IC50, conventionally taken in molar units – is 6.88 on human orexin-2 receptor and 7.08 at human orexin-1 receptor.

As to `COc1cccc(OC)c1C1CC(C)C(=O)N1Cc1cc2cc(F)ccc2n1C` (stereo not drawn) [Example 390, 5-(2,6-dimethoxyphenyl)-1-((5-fluoro-1-methyl-1H-indol-2-yl)methyl)-3-methylpyrrolidin-2-one], the pIC50 is 6.85 at human orexin-2 receptor and 7.10 at human orexin-1 receptor.

For the compound `COc1cccc(OC)c1C1CC(C)C(=O)N1Cc1ccc2c(ccn2C)c1` (stereo not drawn) [Example 391, 5-(2,6-dimethoxyphenyl)-3-methyl-1-((1-methyl-1H-indol-5-yl)methyl)pyrrolidin-2-one], the pIC50 at human orexin-2 receptor is 6.28; at human orexin-1 receptor, 6.76.

As to `COc1cccc(OC)c1C1CC(C)C(=O)N1Cc1ccc2[nH]ccc2c1` (stereo not drawn) [Example 392, 1-((1H-indol-5-yl)methyl)-5-(2,6-dimethoxyphenyl)-3-methylpyrrolidin-2-one], the pIC50 was 5.75 on human orexin-2 receptor and 6.09 at human orexin-1 receptor.

On to `COc1cccc(OC)c1C1CC(C)C(=O)N1Cc1ccc2sc(C)nc2c1` (stereo not drawn) [Example 393, 5-(2,6-dimethoxyphenyl)-3-methyl-1-((2-methylbenzo[d]thiazol-5-yl)methyl)pyrrolidin-2-one], for which the negative logarithm of the IC50 (pIC50) at human orexin-2 receptor was 6.92; at human orexin-1 receptor, 7.49.

With `COc1cccc(OC)c1C1CC(C)C(=O)N1Cc1ccc(OC(C)C)cc1` (stereo not drawn) [Example 397, 5-(2,6-dimethoxyphenyl)-1-(4-isopropoxybenzyl)-3-methylpyrrolidin-2-one], the results for the pIC50 at human orexin-2 receptor and at human orexin-1 receptor were 6.43 and 6.58, respectively.

Consider `COc1cccc(OC)c1C1CC(C)C(=O)N1Cc1ccc(SC(F)(F)F)cc1` (stereo not drawn) [Example 398, 5-(2,6-dimethoxyphenyl)-3-methyl-1-(4-((trifluoromethyl)thio)benzyl)pyrrolidin-2-one], for which the pIC50 was 6.37 at human orexin-2 receptor and 6.56 at human orexin-1 receptor.

`COc1cccc(OC)c1C1CC(C)C(=O)N1Cc1ccc(OC(F)(F)C(F)F)cc1` (stereo not drawn) [Example 399, 5-(2,6-dimethoxyphenyl)-3-methyl-1-(4-(1,1,2,2-tetrafluoroethoxy)benzyl)pyrrolidin-2-one]: the pIC50 on human orexin-2 receptor was 6.91; on human orexin-1 receptor, 6.76.

For `COc1cccc(OC)c1C1CC(C)C(=O)N1Cc1ccc(OC(F)(F)F)c(F)c1` (stereo not drawn) [Example 400, 5-(2,6-dimethoxyphenyl)-1-(3-fluoro-4-(trifluoromethoxy)benzyl)-3-methylpyrrolidin-2-one], the pIC50 on human orexin-2 receptor was 6.74; at human orexin-1 receptor it was 6.82.

Take `COc1cccc(OC)c1C1CC(C)C(=O)N1Cc1ccc(OC(F)F)c(Cl)c1` (stereo not drawn) [Example 401, 1-(3-chloro-4-(difluoromethoxy)benzyl)-5-(2,6-dimethoxyphenyl)-3-methylpyrrolidin-2-one]: the pIC50 was 6.81 at human orexin-2 receptor and 6.79 on human orexin-1 receptor.

For the compound `COc1cccc(OC)c1C1CC(C)C(=O)N1Cc1ccc(OC(F)F)cc1` (stereo not drawn) [Example 402, 1-(4-(difluoromethoxy)benzyl)-5-(2,6-dimethoxyphenyl)-3-methylpyrrolidin-2-one], the pIC50 at human orexin-2 receptor was 6.21; on human orexin-1 receptor it was 6.57.

With `COc1ccc(OC(F)(F)F)cc1CN1C(=O)C(C)CC1c1c(OC)cccc1OC` (stereo not drawn) [Example 403, 5-(2,6-dimethoxyphenyl)-1-(2-methoxy-5-(trifluoromethoxy)benzyl)-3-methylpyrrolidin-2-one], the values for the pIC50 at human orexin-2 receptor and at human orexin-1 receptor were 6.35 and 6.27, respectively.

For `COc1ccc(CN2C(=O)C(C)CC2c2c(OC)cccc2OC)cc1OC(F)(F)F` (stereo not drawn) [Example 404, 5-(2,6-dimethoxyphenyl)-1-(4-methoxy-3-(trifluoromethoxy)benzyl)-3-methylpyrrolidin-2-one], the pIC50 at human orexin-2 receptor is 6.29; on human orexin-1 receptor it was 6.02.

As for `COc1cccc(OC)c1C1CC(C)C(=O)N1Cc1ccccc1OC(F)(F)F` (stereo not drawn) [Example 405, 5-(2,6-dimethoxyphenyl)-3-methyl-1-(2-(trifluoromethoxy)benzyl)pyrrolidin-2-one], the pIC50 at human orexin-2 receptor was 7.06; at human orexin-1 receptor, 6.26.

For the compound `COc1cccc(F)c1C1CC(F)(F)C(=O)N1Cc1ccc2oc3ccccc3c2c1` (stereo not drawn) [Example 410, 1-(dibenzo[b,d]furan-2-ylmethyl)-3,3-difluoro-5-(2-fluoro-6-methoxyphenyl)pyrrolidin-2-one], the pIC50 is 7.92 at human orexin-2 receptor and 6.84 at human orexin-1 receptor.

As for `CC(C)Oc1cccc(F)c1C1CC(F)(F)C(=O)N1Cc1ccc(OC(F)(F)F)cc1` (stereo not drawn) [Example 411, 3,3-difluoro-5-(2-fluoro-6-isopropoxyphenyl)-1-(4-(trifluoromethoxy)benzyl)pyrrolidin-2-one], the pIC50 on human orexin-2 receptor is 7.01; at human orexin-1 receptor, 5.83.

On to `CC(C)Oc1cccc(F)c1C1CC(C)C(=O)N1Cc1ccc(OC(F)(F)F)cc1` (stereo not drawn) [Example 413, 5-(2-fluoro-6-isopropoxyphenyl)-3-methyl-1-(4-(trifluoromethoxy)benzyl)pyrrolidin-2-one], for which the results for the pIC50 on human orexin-2 receptor and at human orexin-1 receptor were 7.17 and 5.82, respectively.

As for `CC1CC(c2c(F)cccc2OCCF)N(Cc2ccc(OC(F)(F)F)cc2)C1=O` (stereo not drawn) [Example 414, 5-(2-fluoro-6-(2-fluoroethoxy)phenyl)-3-methyl-1-(4-(trifluoromethoxy)benzyl)pyrrolidin-2-one], the values for the pIC50 on human orexin-2 receptor and at human orexin-1 receptor were 7.36 and 5.82, respectively.

In the case of `CC1CC(c2c(F)cccc2OCCO)N(Cc2ccc(OC(F)(F)F)cc2)C1=O` (stereo not drawn) [Example 416, 5-(2-fluoro-6-(2-hydroxyethoxy)phenyl)-3-meetthyl-1-(4-(trifluoromethoxy)benzyl)pyrrolidin-2-one], the negative-log IC50 (pIC50) at human orexin-2 receptor was 7.23; on human orexin-1 receptor it was 5.53.

Take `COc1cccc(OC)c1C1CC(C)C(=O)N1Cc1cccc(OCC(F)(F)F)c1` (stereo not drawn) [Example 417, 5-(2,6-dimethoxyphenyl)-3-methyl-1-(3-(2,2,2-trifluoroethoxy)benzyl)pyrrolidin-2-one]: the pIC50 was 6.96 on human orexin-2 receptor and 6.91 at human orexin-1 receptor.

Take `COc1cccc(OC)c1C1CC(C)C(=O)N1Cc1ccc(OCC(F)(F)F)cc1` (stereo not drawn) [Example 418, 5-(2,6-dimethoxyphenyl)-3-methyl-1-(4-(2,2,2-trifluoroethoxy)benzyl)pyrrolidin-2-one]: the pIC50 was 6.49 on human orexin-2 receptor and 6.37 at human orexin-1 receptor.

As to `COc1cccc(OC)c1C1CC(C)C(=O)N1Cc1cccc(OCC(F)F)c1` (stereo not drawn) [Example 419, 1-(3-(2,2-difluoroethoxy)benzyl)-5-(2,6-dimethoxyphenyl)-3-methylpyrrolidin-2-one], the pIC50 was 6.76 at human orexin-2 receptor and 6.84 at human orexin-1 receptor.

Consider `COc1cccc(OC)c1C1CC(C)C(=O)N1Cc1ccc(OCC(F)F)cc1` (stereo not drawn) [Example 420, 1-(4-(2,2-difluoroethoxy)benzyl)-5-(2,6-dimethoxyphenyl)-3-methylpyrrolidin-2-one], for which the pIC50 at human orexin-2 receptor was 6.26; on human orexin-1 receptor, 6.23.

For `COc1cccc(OC)c1C1CC(C)C(=O)N1Cc1cccc(OCCF)c1` (stereo not drawn) [Example 421, 5-(2,6-dimethoxyphenyl)-1-(3-(2-fluoroethoxy)benzyl)-3-methylpyrrolidin-2-one], the negative logarithm of the IC50 (pIC50) at human orexin-2 receptor was 6.63; on human orexin-1 receptor, 6.30.

Take `COc1cccc(OC)c1C1CC(C)C(=O)N1Cc1ccc(OCCF)cc1` (stereo not drawn) [Example 422, 5-(2,6-dimethoxyphenyl)-1-(4-(2-fluoroethoxy)benzyl)-3-methylpyrrolidin-2-one]: the pIC50 at human orexin-2 receptor was 5.98; at human orexin-1 receptor, 6.06.

On to `COc1cccc(OC)c1C1CC(C)C(=O)N1Cc1cccc(OC(C)C)c1` (stereo not drawn) [Example 423, 5-(2,6-dimethoxyphenyl)-1-(3-isopropoxybenzyl)-3-methylpyrrolidin-2-one], for which the values for the pIC50 at human orexin-2 receptor and on human orexin-1 receptor were 7.03 and 7.00, respectively.

`COc1cccc(OC)c1C1CC(C)C(=O)N1Cc1cccc(OC(F)(F)C(F)F)c1` (stereo not drawn) [Example 424, 5-(2,6-dimethoxyphenyl)-3-methyl-1-(3-(1,1,2,2-tetrafluoroethoxy)benzyl)pyrrolidin-2-one]: the figures for the pIC50 on human orexin-2 receptor and at human orexin-1 receptor were 7.89 and 7.57, respectively.

As to `COc1cc(CN2C(=O)C(C)CC2c2c(OC)cccc2OC)ccc1OC(F)F` (stereo not drawn) [Example 425, 1-(4-(difluoromethoxy)-3-methoxybenzyl)-5-(2,6-dimethoxyphenyl)-3-methylpyrrolidin-2-one], the pIC50 was 6.63 on human orexin-2 receptor and 6.51 at human orexin-1 receptor.

As for `COc1cccc(OC)c1C1CC(C)C(=O)N1Cc1ccc2sc3ccccc3c2c1` (stereo not drawn) [Example 426, 1-(dibenzo[b,d]thiophen-2-ylmethyl)-5-(2,6-dimethoxyphenyl)-3-methylpyrrolidin-2-one], the pIC50 was 8.10 at human orexin-2 receptor and 8.22 at human orexin-1 receptor.

For `COc1ccc2nc(C)oc2c1C1CCCC(=O)N1Cc1cccc(-c2ccccc2)c1` (stereo not drawn) [Example 440, 1-([1,1′-biphenyl]-3-ylmethyl)-6-(6-methoxy-2-methylbenzo[d]oxazol-7-yl)piperidin-2-one], the pIC50 on human orexin-2 receptor is 7.04; on human orexin-1 receptor it was 7.34.

For `COc1ccc2nc(C)oc2c1C1CCCC(=O)N1Cc1cccc(-c2csc(C)n2)c1` (stereo not drawn) [Example 441, 6-(6-methoxy-2-methylbenzo[d]oxazol-7-yl)-1-(3-(2-methylthiazol-4-yl)benzyl)piperidin-2-one], the pIC50 at human orexin-2 receptor is 7.21; on human orexin-1 receptor, 7.80.

Take `CCc1nc2ccc(OC)c(C3CCCC(=O)N3Cc3cccc(-c4csc(C)n4)c3)c2o1` (stereo not drawn) [Example 442, 6-(2-ethyl-6-methoxybenzo[d]oxazol-7-yl)-1-(3-(2-methylthiazol-4-yl)benzyl)piperidin-2-one]: the figures for the pIC50 at human orexin-2 receptor and on human orexin-1 receptor were 7.48 and 8.00, respectively.

For the compound `COc1ccc2c(c1C1CCCC(=O)N1Cc1cccc(-c3csc(C)n3)c1)OCCO2` (stereo not drawn) [Example 443, 6-(6-methoxy-2,3-dihydrobenzo[b][1,4]dioxin-5-yl)-1-(3-(2-methylthiazol-4-yl)benzyl)piperidin-2-one], the pIC50 on human orexin-2 receptor was 7.89; on human orexin-1 receptor, 8.30.
